Consider 18 compounds from patent US11596692B1 (Incyte Corporation, priority 2018, dated 2023).

The target in experiment [1] is T1, PD-L1 (Homo sapiens (Human), UniProt Q9NZQ7). The experiment can be described thus: Indirect PD-L1 internalization assay using MDA-MB231 cells. The settings on record: 16 hrs. Type of experiment: cell-based. The protocol:
For the indirect analysis, cell surface PD-L1 was detected with fluorescently labeled anti-PD-L1 (CD274) antibodies. CHO-PD-L1 cells were seeded at 2×10^5 cells per well of a 6-well tissue culture plate in 2 ml of F-12 medium supplemented with 10% FBS, 200 μg/ml Hydromycin and 250 μg/ml Geneticin and allowed to attach for 24 hours. After 24 hours, test compounds were added to a final concentration of 1 uM from DMSO stocks, and an equal volume of DMSO was added to control wells. Cells were incubated in the presence of a compound for 16 hours at 37° C., 5% CO2. Prior to analysis, the cells were washed twice with 1 mL of Ca, Mg free PBS and detached with 1 mL of lift buffer (10 mM Tris, 140 mM NaCl, 1 mM EDTA). The collected cells were stained with PE-conjugated mouse anti-human CD274 antibody according to manufacturer instructions: BD Pharmigen #557924 Clone MIH1 (20 μL of Ab per 100 uL of BSA based staining buffer) or eBioscience #12-5983 Clone MIH1 (2 μL per 100 ul of BSA based staining buffer). Cells were incubated at room temperature for 20 minutes, protected from light, washed twice with Ca, Mg free PBS and resuspended in 400 μL of PBS. Antibody binding was detected by flow cytometry using an Accuri C6 instrument. Isotype control antibody-stained cells were used as a negative control. To test that lack of PD-L1 cell surface staining was not due to inhibition of detection antibody binding by the test article, an acid-wash procedure was used. After 16 hours of incubation in the presence of a compound or anti-PD-L1 antibody, the remaining, non-internalized a compound or antibody was stripped from the cell surface using freshly prepared, ice-cold acid stripping buffer (DMEM/0.2% BSA, pH 3.5). Cells were washed in this manner three times for 5 minutes each on a shaking platform. The stripped cells were then washed with ice-cold PBS three times for 5 minutes each with gentle shaking, harvested with lift buffer and stained with PE-mouse anti human CD274 antibodies as described.
For the indirect method of assessing PD-L1 internalization using the MDA-MB231 breast cancer cell line, the procedure for the assays was the same as described for the CHO-PD-L1 cells with the following changes. MDA-MB231 were seeded at 2×10^5 cells per well of a 6-well tissue culture plate in 2 ml of RPMI1640 medium supplemented with 10% FBS. After compound treatment for 16 hrs, the cells were treated with the stripping buffer (DMEM/0.2% BSA, pH 3.5) prior to staining with the anti-CD274 antibodies as described.

The target of another experiment is PD-1/PD-L1 (Homo sapiens (Human), UniProt Q9NZQ7). In words: PD-1/PD-L1 binding assay (Alphascreen). The protocol:
Binding assays were conducted in a low volume white 384-well polystyrene plate in a final volume of 20 μL. Compounds to be analyzed were first serially diluted in DMSO and added to the plate wells before the addition of other reaction components. The final concentration of DMSO in the assay was 1%. The assay was carried out at 25° C. in the PBS buffer (pH 7.4) with 0.05% Tween-20 and 0.1% BSA. Recombinant human PD-L1 protein (19-238) with a His-tag at the C-terminus was purchased from AcroBiosystems (PD1-H5229). Recombinant human PD-1 protein (25-167) with Fc tag at the C-terminus was also from AcroBiosystems (PD1-H5257). PD-L1 and PD-1 proteins were diluted in the assay buffer (final concentration—0.67 and 0.20 nM respectively) and 10 μL was added to the plate well. Plates were centrifuged and proteins were preincubated with compounds for 40 minutes. The incubation was followed by the addition of 10 μL of assay buffer supplemented with Alphascreen Ni chelate donor beads (PerkinElmer—AS101D) and Protein A Acceptor beads (PerkinElmer—6760137) at final concentration 2.5 μg/mL under reduced light. After plate sealing, the plate was incubated in the dark at room temperature for 120 minutes before reading on a PHERAstar FS plate reader (BMG Labtech). IC50 determination was performed by fitting the curve of percent control activity versus the log of the compound concentration using the GraphPad Prism 5.0 software.
(In general: Alpha assays give light when donor and acceptor beads are brought close together.)

Experiment [2] addresses T1, PD-L1. In words: Indirect whole blood PD-L1 internalization assay. The following applies: interferon γ, 18 hours, CD14+ gated. Type of experiment: cell-based. How it is done:
To determine PD-L1 internalization in human whole blood, normal human blood (Biological Specialty Corp, Colmar. Pa.) was incubated in the presence or absence of a concentration range of test compounds and 1 ng/ml human interferon γ (R&D Systems Inc. Minn. Minn.) in a 96 well round bottom plate (Corning, Corning, N.Y.) for 18 hours at 37° C. Blood was then transferred into 96 well “2 ml Assay Block” (Corning, Corning N.Y.) and stained with PD-L1 (MIH1, eBioscience; or BD Biosciences San Jose, Calif.), CD14 (Life Technologies, Carlsbad, Calif.) for 30 minutes in the dark at room temperature. Whole Blood/red cells were lysed/fixed (lysis buffer BD Biosciences) for 5 minutes at 37° C. in dark and then centrifuged at 1600 RPM for 5 minutes and cells were transferred into 96 well round bottom plates (Corning). Cells were gated on CD14+ (BD Biosciences) and PD-L1 expression determined by mean fluorescence intensity (MFI) (BD LSRFortessa™ X-20). IC50 determination was performed by fitting the curve of compound percent inhibition versus the log of the compound concentration using the GraphPad Prism 7.0 software.

In experiment [3] the test system is IFNβ production in CD11b+ monocytes. In words: IFN-beta induction in CD11b+ monocytes from lung cancer pleural effusions. Type of experiment: cell-based, human. The following applies: Homo sapiens; CD11b+ monocyte cultures, lung cancer pleural effusion, 20 hours; read-out: EC50 for IFNβ induction, Cancer patient. The protocol:
(§1) CD11b^+ cells were isolated from healthy PBMCs as well as Pleural effusion samples using Miltenyi isolation kit according to manufacturer's protocol. Cells were seeded in 96 well plates at the density of 300,000 cells/wells, and then treated with various concentrations of compounds for 20 hours. After 20 hours, IFN-beta secretion levels were evaluated in the culture supernatants by MSD singleplex assay. EC50 values were calculated using Prism software.
(§2) Different naked STING agonisst and PD-L1-targeted small molecule-STING agonist conjugates were added to CD11b^+ monocytes cultures isolated from healthy donor blood or lung cancer patients' pleural effusions. Culture supernatants were collected 20 hours later and IFNβ production were determined using MSD singleplex assay.

Experiment [4] shares this test system. In words: IFN-beta induction in CD11b+ monocytes from healthy donor PBMC. In kind it is cell-based, human. The following applies: Homo sapiens, CD11b+ monocyte cultures, 20 hours, mean ± SEM. The protocol: as §1, §2
Another experiment deals with IRF3. The experiment can be described thus: IRF3 activation assay in THP-1 Dual cells. In kind it is cell-based. The following applies: Homo sapiens, THP-1, Table 4C; read-out: THP1 IRF3 EC50. An outline of the steps:
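THP-1 Dual cells (100,000/well) were treated with serially diluted compound for 24 h at 37° C, 5% CO2. IRF3 reporter activity in supernatant was read with QUANTI-Blue as absorbance at 620-655 nm after 2 h, with untreated cells as negative control. EC50 came from fitting percent control activity against log concentration.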

T1 sequence (Q9NZQ7 19-290): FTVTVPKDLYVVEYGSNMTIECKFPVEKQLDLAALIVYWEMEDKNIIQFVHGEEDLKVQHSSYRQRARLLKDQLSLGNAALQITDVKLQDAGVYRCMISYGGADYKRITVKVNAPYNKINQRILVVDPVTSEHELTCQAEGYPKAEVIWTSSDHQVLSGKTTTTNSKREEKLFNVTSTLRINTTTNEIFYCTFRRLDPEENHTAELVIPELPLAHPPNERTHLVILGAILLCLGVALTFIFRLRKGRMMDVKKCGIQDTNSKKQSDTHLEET
Sequence of PD-1/PD-L1 (Q9NZQ7 19-238): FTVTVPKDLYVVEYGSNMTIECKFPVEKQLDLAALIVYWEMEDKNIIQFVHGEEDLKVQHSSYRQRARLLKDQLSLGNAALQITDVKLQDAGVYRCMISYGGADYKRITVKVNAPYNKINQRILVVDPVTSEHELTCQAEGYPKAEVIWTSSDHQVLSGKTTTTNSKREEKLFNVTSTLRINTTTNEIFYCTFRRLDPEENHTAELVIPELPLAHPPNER

Turning to `Cc1c(-c2nc3c(C#N)cc(CN4CC[C@@H](O)C4)cn3n2)cccc1-c1cccc(-c2nc3cc(CN4CC[C@@H](C(=O)O)C4)cc(C#N)c3o2)c1C` [Example P26], the IC50 (commonly the midpoint of a concentration-inhibition curve) lay in the range of 10 to 100 nM against PD-L1 [1], 0.1 to 1 nM at PD-1/PD-L1 and 100 to 1000 nM at PD-L1 [2].

Turning to `Cc1c(Nc2nccc3cc(CN4CC[C@@H](O)C4)cnc23)cccc1-c1cccc(Nc2nccc3cc(CN4CC[C@@H](C(=O)O)C4)cnc23)c1C` [Example P18], the IC50 lay in the range of 0.1 to 1 nM at PD-1/PD-L1 and 100 to 1000 nM against PD-L1 [2].

On to `Cc1c(NC(=O)c2nc3c(n2C)CCN(C[C@H](C)O)C3)cccc1-c1cccc(NC(=O)c2nc3c(n2C)CCN(C)C3)c1Cl` [Example P8], for which the IC50 against PD-L1 [1] is under 10 nM; at PD-1/PD-L1, 0.1 to 1 nM; on PD-L1 [2], under 100 nM.

On to `Cc1c(NC(=O)c2nc3c(n2C)CCN(C[C@@H](C)O)C3)cccc1-c1cccc(NC(=O)c2nc3c(n2C)CCN(C)C3)c1Cl` [Example P10], for which the IC50 was under 10 nM against PD-L1 [1], 0.1 to 1 nM on PD-1/PD-L1 and under 100 nM against PD-L1 [2].

For `Cc1c(Nc2nccc3cc(CN4CC[C@@H](O)C4)cnc23)cccc1-c1cccc(-c2nc3cc(CC4CC[C@@H](C(=O)O)C4)cc(C#N)c3o2)c1C` (stereo partly shown) [Example P14], the IC50 was under 10 nM at PD-L1 [1], 0.1 to 1 nM at PD-1/PD-L1 and under 100 nM against PD-L1 [2].

Regarding `CCn1nc(C)cc1C(=O)Nc1nc2cc(C(N)=O)cc(OCCCNC(=O)OCC(=O)O)c2n1C/C=C/Cn1c2nc(-c3cc(C)nn3CC)ncc2c2cc(C(N)=O)cc(OCCCOC)c21` [Example S45, (E)-2-(((3-((5-carbamoyl-1-(4-(6-carbamoyl-2-(1-ethyl-3-methyl-1H-pyrazol-5-yl)-8-(3-methoxypropoxy)-9H-pyrimido[4,5-b]indol-9-yl)but-2-en-1-yl)-2-(1-ethyl-3-methyl-1H-pyrazole-5-carboxamido)-1H-benzo[d]imidazol-7-yl)oxy)propyl)carbamoyl)oxy)acetic acid], the EC50 (in general, the midpoint of the concentration-response curve) is 56 nM in experiment [3], 119 ± 22 nM in experiment [4] and at most 50 nM in the experiment on IRF3.

Consider `Cc1c(-c2nc3cc(CN4CC[C@@](C)(C(=O)O)C4)cc(C#N)c3o2)cccc1-c1cccc(Nc2nccc3cc(CN4CC[C@H](O)C4)cnc23)c1Cl` [Example P16], for which the IC50 lay within 10 to 100 nM at PD-L1 [1], 0.1 to 1 nM on PD-1/PD-L1 and 100 to 1000 nM at PD-L1 [2].

`Cc1c(Nc2nccc3cc(CN4CC[C@@H](O)C4)cnc23)cccc1-c1cccc(-c2nc3cc(CN4CC(C(=O)O)C4)cc(Cl)c3o2)c1C` [Example P24]: the IC50 on PD-L1 [1] fell in the range of 10 to 100 nM; on PD-1/PD-L1 it was 0.1 to 1 nM; against PD-L1 [2], 100 to 1000 nM.

For the compound `Cc1c(Nc2nccc3cc(CN4CC[C@H](C(=O)O)C4)cnc23)cccc1-c1nccc(Nc2nccc3cc(CN4CC[C@@H](O)C4)cnc23)c1C` [Example P23], the IC50 is 10 to 100 nM on PD-L1 [1], 0.1 to 1 nM on PD-1/PD-L1 and 100 to 1000 nM against PD-L1 [2].

For the compound `Cc1c(Nc2nccc3cc(CN4CC[C@@H](O)C4)cnc23)cccc1-c1cccc(-c2nc3cc(CN4CC[C@@H](C(=O)O)C4)cc(C#N)c3o2)c1C` [Example P15], the IC50 at PD-1/PD-L1 lay within 0.1 to 1 nM; at PD-L1 [2], 100 to 1000 nM.

`Cc1c(NC(=O)c2nc3c(n2C)CCN(C2CCOCC2)C3)cccc1-c1cccc(NC(=O)c2nc3c(n2C)CCN(C)C3)c1Cl` [Example P9]: the concentration for half-maximal inhibition (IC50) at PD-1/PD-L1 was 0.1 to 1 nM; against PD-L1 [2] it was under 100 nM.

Turning to `Cc1c(Nc2nccc3cc(CN4CC[C@@H](O)C4)cnc23)cccc1-c1cccc(-c2nc3c(Cl)cc(CN4CC[C@@H](C(=O)O)C4)cn3n2)c1C` [Example P17], the half-inhibitory concentration (IC50) was in the range of 100 to 500 nM against PD-L1 [1], 0.1 to 1 nM on PD-1/PD-L1 and 100 to 1000 nM against PD-L1 [2].

`Cc1c(Nc2nccc3cc(CN4CC[C@@H](O)C4)cnc23)cccc1-c1cccc(-c2nc3cc(CN4CC(C(=O)O)C4)cc(C#N)c3o2)c1C` [Example P20]: the concentration for half-maximal inhibition (IC50) at PD-1/PD-L1 fell in the range of 0.1 to 1 nM; against PD-L1 [2], 100 to 1000 nM.

On to `Cc1c(-c2nc3c(Cl)cc(CN4CC[C@@H](O)C4)cn3n2)cccc1-c1cccc(-c2nc3cc(CN4CC[C@@H](C(=O)O)C4)cc(C#N)c3o2)c1C` [Example P25], for which the IC50 against PD-L1 [1] lay in the range of 10 to 100 nM; on PD-1/PD-L1, 0.1 to 1 nM; on PD-L1 [2] it was 1000 to 5000 nM.

For the compound `Cc1c(-c2nc3cc(CN4CC[C@@H](C(=O)O)C4)cc(C#N)c3o2)cccc1-c1cccc(-c2nc3c(s2)CNCC3)c1C` [Example P12], the results for the concentration for half-maximal inhibition (IC50) at PD-L1 [1], on PD-1/PD-L1 and at PD-L1 [2] were 10 to 100 nM, 0.1 to 1 nM and 100 to 1000 nM, respectively.

In the case of `Cc1c(-c2nc3cc(CN4CC[C@@H](C(=O)O)C4)cc(C#N)c3o2)cccc1-c1cccc(-n2cc3c(n2)CN(C(C)C)CC3)c1Cl` [Example P19], the concentration for half-maximal inhibition (IC50) against PD-L1 [1] is over 500 nM; at PD-1/PD-L1, 0.1 to 1 nM; on PD-L1 [2], 100 to 1000 nM.

`Cc1c(-c2nc3cc(CN4CC[C@@H](C(=O)O)C4)cc(C#N)c3o2)cccc1-c1cccc(NC(=O)c2nc3c(n2C)CCN(C)C3)c1Cl` [Example P22]: the concentration for half-maximal inhibition (IC50) at PD-1/PD-L1 is 0.1 to 1 nM; on PD-L1 [2] it was under 100 nM.

Take `Cc1c(Nc2nccc3cc(CN4CC[C@@H](O)C4)cnc23)cccc1-c1cccc(-c2nc3cc(CNCC(C)(C)C(=O)O)cc(C#N)c3o2)c1C` [Example P21]: the figures for the half-maximal inhibitory concentration (IC50) against PD-L1 [1], at PD-1/PD-L1 and against PD-L1 [2] were 10 to 100 nM, 0.1 to 1 nM and 100 to 1000 nM, respectively.
